Test results as given in the METLIN SMRT retention time set (Domingo-Almenara et al. 2019).

Assay: gradient 5% acetonitrile 3 min, to 50% in 2 min, to 85% in 15 min, held 3 min, 100 µL/min
Conditions: column: Zorbax Extend-C18 2.1 x 50 mm; eluents: water / acetonitrile, 0.1% formic acid
How it was run: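 A Zorbax Extend-C18 column (2.1 × 50 mm, 1.8 μm) run at 100 μL/min with water and acetonitrile, both containing 0.1% formic acid, separated mixtures of ~100 pure standards. The HPLC was coupled to a quadrupole time-of-flight mass spectrometer operated in positive and negative ionization mode, with dead and dwell volumes of 40 μL and 900 μL. Each retention time was taken from a computationally picked adduct peak that was then manually inspected.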

| SMILES | RP-LC retention time [s] |
| --- | --- |
| Cc1cccc(-c2nnc(CC(=O)NCC(C)C)o2)c1 | 790 |
| Cc1ccc(-c2cc3c(=O)n(Cc4noc(CN5CCOCC5)n4)ccn3n2)cc1C | 777 |
| O=c1c2ccccc2n(Cc2nc(-c3ccc(F)cc3)no2)c(=O)n1Cc1ccco1 | 1050 |
| COc1cc(Cl)c(C)cc1NC(=O)CN1C(=O)NC2(CCCCC2)C1=O | 884 |
| C=CCn1c(=O)c2ccccc2n(Cc2nc(-c3ccccc3C)no2)c1=O | 1080 |
| O=C(Nc1ccccc1F)N1CCC2(CCC2N2CCOCC2)CC1 (stereo not given) | 554 |
| CCc1noc(-c2ccc(-n3cnc(C(=O)NC(C)CC)c3)nc2)n1 (stereo not given) | 828 |
| Cc1cccc2nnc(N3CCN(C(=O)c4ccsc4)CC3)n12 | 614 |
| CNC(=O)c1ccc(-n2cccc2)nc1 | 645 |
| O=C(NCc1ccccn1)C1c2ccccc2C(=O)N(Cc2ccccc2)C12CCCC2 (stereo not given) | 704 |
| COc1ccccc1-n1ccnc(NC(=O)Nc2ccc(F)cc2F)c1=O | 938 |
| CC1CCN(c2nc3c(c(=O)n(Cc4ccccc4Cl)c(=O)n3C)n2C)CC1 | 1170 |
| Cc1noc(C)c1-c1ccc(S(=O)(=O)Nc2ccc(F)cc2)cc1 | 904 |
| Cc1noc2ncn(CC(=O)NCc3cccc(Br)c3)c(=O)c12 | 779 |
| O=C(NCc1ccco1)c1c(O)c2sccc2[nH]c1=O | 787 |
| CCNC(=O)CCc1cc2ccccc2[nH]c1=O | 623 |
| Cc1noc(CNC(=O)CN(C)c2nc3c(F)cccc3s2)n1 | 667 |
| CC(=O)c1cccc(NC(=O)Cn2c(-c3ccccc3)nc(C)cc2=O)c1 | 912 |
| CC(C)CN1C(=O)c2cccn2CC1C(=O)NCc1ccco1 (stereo not given) | 733 |
| COc1cc(CNC(=O)c2cn3cc(C)ccc3n2)cc(OC)c1 | 604 |
| CCN(CC)S(=O)(=O)c1cc(-c2nnc(-c3ccc(OC)cc3)o2)ccc1C | 1030 |
| O=C(c1cn(-c2cc(N3CCSCC3)ncn2)cn1)N1CCN(c2ccccn2)CC1 | 624 |
| CSc1ccccc1NC(=O)c1nnn(-c2nc3c(s2)CCCC3)c1C | 972 |
| C[C@]12CC[C@H](O)CC1=CC[C@@H]1[C@@H]2CC[C@]2(C)c3[nH]ncc3C[C@@H]12 | 796 |
| O=C(c1ccco1)N1CCCC1c1nc(-c2ccc(F)cc2F)no1 (stereo not given) | 860 |
| O=C(CN1C(=O)COc2ccc(Cl)cc21)NCC(=O)N1CCCc2ccccc21 | 862 |
| O=C(Nc1ccc(-c2nc(-c3ccc(F)cc3)no2)cc1)c1cccs1 | 1170 |

| SMILES | RP-LC retention time [s] |
| --- | --- |
| CC(C)Cn1ccc2c(cc(C(=O)Nc3ccccc3Br)n2C)c1=O | 881 |
| O=C(C1CCN(c2nnc(-c3ccccc3)o2)CC1)N1CCN(C2CCCCC2)CC1 | 628 |
| Cc1cccc(NC(=O)Cn2ccc3sccc3c2=O)c1C | 741 |
| Cc1nn2c(CNC(=O)c3ccc(C(F)(F)F)cc3)c(C)nc2s1 | 692 |
| Cc1cc(C(=O)NCc2ccco2)c2cccc(-c3ccccc3)c2n1 | 936 |
| Cc1ccccc1CC(=O)N1CCN(c2nc(CN3CCOCC3)cs2)CC1 | 636 |
| CCc1nnc(-c2cn(CC(=O)Nc3cc(Cl)c(OC)cc3OC)c3ccccc23)o1 | 916 |
| COc1ccc(Cl)cc1NC(=O)C1Oc2ccccc2NC1=O (stereo not given) | 873 |
| O=C(Cc1ccc(F)cc1)NC(c1ccccc1)c1nnc(N2CCOCC2)o1 (stereo not given) | 743 |
| CCc1nc2ccccc2c(=O)n1Cc1noc(-c2ccc(F)cc2)n1 | 998 |
| O=C(NCc1ccccn1)c1c(-c2ccccc2)nnc2ccccc12 | 609 |
| COc1ccccc1N1CCN(c2cc(SCC(=O)NCc3ccc(SC)cc3)ncn2)CC1 | 929 |
| Clc1cc(N2CCSCC2)ncn1 | 763 |
| Cc1ccn2cc(C(=O)NCc3ccc(F)cc3F)nc2c1 | 655 |
| CCn1c(C)c(-c2nc(C3CC3)no2)c(S(=O)(=O)NC2CCCC2)c1C | 1060 |
| COc1ccc(-c2ccc(=O)n(Cc3nc(-c4ccc(C)cc4)no3)n2)cc1OC | 925 |
| Cc1ccc(C)c(Cn2nc(-c3nc(C(C)(C)C)no3)ccc2=O)c1 | 1170 |
| O=C(Cn1c(=O)c2nncn2c2ncccc21)N1CCN(c2ccccc2)CC1 | 674 |
| Cc1cc(C)c(-c2noc(C)n2)c(NC(=O)c2cccc(Cl)c2)n1 | 827 |
| O=C(c1cccs1)N1CCN(c2ccc(=O)n(-c3ccc(Cl)cc3)n2)CC1 | 834 |
| CC(C)=CCOc1cc(O)c2c(=O)cc(-c3ccccc3)oc2c1 | 666 |
| Cc1ccccc1N1C(=O)CN(S(=O)(=O)c2ccccc2)CC1(C)C(=O)NCCC(C)C (stereo not given) | 970 |
| COC(=O)c1c(NCC(C)O)c2cccc(Cl)c2[nH]c1=O (stereo not given) | 610 |
| Cc1noc(C)c1Cc1c(C(=O)N2CCC3(CCC3O)CC2)noc1C (stereo not given) | 680 |
| Fc1ccc(-c2noc(-c3nnn4c3COC(c3ccc(Cl)cc3)C4)n2)cc1 (stereo not given) | 1250 |
| Cc1ccc(NC(=O)Cn2c(C)nc3c(sc4nc(-c5ccccc5)ccc43)c2=O)cc1C | 1120 |

The next lines start with the values.

| RP-LC retention time [s] | SMILES |
| --- | --- |
| 705 | COc1ccc(N2CCN(C(=O)C3CCN(C(=O)C4Sc5ccccc5NC4=O)CC3)CC2)cc1 (stereo not given) |
| 646 | CCOC(=O)c1c(C)[nH]c(C)c1S(=O)(=O)N1CCC(C(=O)Nc2ccc(C)cn2)CC1 |
| 798 | CC1CCCN(S(=O)(=O)c2ccc(-n3cnc(C(=O)NC4CC4)c3)nc2)C1 (stereo not given) |
| 720 | CC(=O)Nc1cccc(N2CC(C(=O)Nc3ccc(C)cc3Br)CC2=O)c1 (stereo not given) |
| 1270 | Cc1ccc(-c2csc(-n3nc(C)c(CC(=O)N4CCCCCC4)c3C)n2)cc1 |
| 683 | CN(CC1CCOC1)C(=O)c1ccc(F)cc1F (stereo not given) |
| 717 | O=C(NCc1csc(C2CCCN(C(=O)c3ccc(F)cc3F)C2)n1)C1CC1 (stereo not given) |
| 643 | CCOc1ccc(NC(=O)C2CCCN(C)C2)cc1 (stereo not given) |
| 711 | CCC(C)NC(=O)c1ccc(-c2ccc(N3CCSCC3)nc2)cc1 (stereo not given) |
| 808 | O=C(COc1ccccc1)N1CCCC(COc2ccc(C(=O)N3CCCC3)cc2)C1 (stereo not given) |
| 795 | CCc1cccc(NC(=O)N(C)CC2CCOCC2)c1 |
| 826 | CCN1c2cc(Cl)ccc2C(=O)NC12CCN(C(=O)Nc1ccc3c(c1)OCO3)CC2 |
| 871 | CCc1ccc(CNC(=O)C2CCCN(c3ccc(=O)n(-c4ccc(OC)cc4)n3)C2)cc1 (stereo not given) |
| 656 | COc1ccc(OC)c(S(=O)(=O)N2CCC(Cc3ncc(C)n3C3CC3)C2)c1 (stereo not given) |
| 649 | CCn1c(CNC(=O)C2CCC2)nc2c1CN(S(=O)(=O)c1ccc(C)cc1)CC2 |
| 902 | COc1ccccc1OCCC1CCN(S(=O)(=O)c2ccc3c(c2)C(C)(C)C(=O)N3)C1 (stereo not given) |
| 924 | O=C(Nc1ccc(C(F)(F)F)cc1)C1CCN(S(=O)(=O)c2ccc3[nH]c(=O)sc3c2)CC1 |
| 969 | Cc1nc(NC(=O)c2ccc(OCc3nc(C4CC4)cs3)cc2)sc1C |
| 877 | CCOCCOC1CCN(S(=O)(=O)Cc2ccccc2F)CC1 |

| RP-LC retention time [s] | SMILES |
| --- | --- |
| 730 | Cc1nc(-c2ccc(OC3CCN(C(=O)NC(C)C)C3)cc2)no1 (stereo not given) |
| 995 | O=C(Nc1ccccc1Cl)C1CCCN(C(=O)Cc2cccc3ccccc23)C1 (stereo not given) |
| 808 | O=C(Nc1ccc(N2CCN(C3CCCCC3)C2=O)nc1)c1ccc2c(c1)OCO2 |
| 956 | Cc1ccc(CNC(=O)C2(C)CCN(C(=O)Nc3ccc(C)cc3Cl)CC2)cc1 |
| 775 | O=C(c1cccc(Br)c1)N1CCC(n2c(-c3ccoc3)nc3cccnc32)C1 (stereo not given) |
| 678 | CCOC(=O)C1CCN(C(=O)c2ccc3c(c2)N(CC(=O)N2CCCC2)C(=O)CO3)CC1 |
| 1000 | CCn1c(=O)c(N2CCCC(C(=O)N3CCCCCC3)C2)nc2cccnc21 (stereo not given) |
| 854 | O=C(Cn1cnc2c(-c3ccc(F)cc3)csc2c1=O)NC1CCCC1 |
| 846 | CC(NC(=O)c1ccc(N(C)C)cc1)C(=O)N1CCCc2ccccc21 (stereo not given) |
| 772 | COc1ccc(-n2nc(SCC(=O)Nc3ccc(F)c(F)c3)ccc2=O)cc1 |
| 619 | CCOC(=O)c1c(C)[nH]c(C(=O)N2CCC(CC(=O)N3CCN(c4ccccn4)CC3)CC2)c1C |
| 563 | Cc1ccc(Nc2cc(N3CCN(C(=O)COc4ncccn4)CC3)nc(C)n2)cc1 |
| 1230 | Cc1ccc(NC(=O)C2CCCN(c3nc4ccccc4nc3C(F)(F)F)C2)c(C)c1 (stereo not given) |
| 890 | COC1C(=O)N(c2cccc(F)c2)C12CCN(C(=O)Nc1ccccc1F)CC2 (stereo not given) |
| 657 | CCCOc1nccnc1N1CCC(N(C)C(=O)c2ccc(C)nc2)C1 (stereo not given) |
| 1010 | COc1ccc(-c2noc(C3CCCN3C(=O)c3ccc(C)cc3)n2)cc1 (stereo not given) |
| 682 | CC(=O)c1cccc(NC(=O)Cn2c(=O)nc(NC3CCCC3)c3ccccc32)c1 |
| 789 | Cc1nc(OCC(=O)Nc2ccc(Cl)cc2F)c2ccccc2n1 |
